Results from patent publication US20120016011A1, “RNA Interference Mediated Inhibition of Connective Tissue Growth Factor (CTGF) Gene Expression Using Short Interfering Nucleic Acid (siNA)” (Merck Sharp & Dohme Corp., priority 2009, published 2012).
[invAb] = inverted abasic unit; m = 2'-O-methyl; r = 2'-OH (RNA); f = 2'-fluoro

How the values were obtained:
CTGF mRNA [1] = experiment: CTGF mRNA knockdown (Taqman RT-PCR) after siNA transfection of mouse NIH 3T3 cells; format: cell-based; settings: mouse NIH3T3 cells, 10 nM siNA, 24 hrs, average of 3 experiments, vs non-targeting control
Protocol: NIH 3T3 (mouse; ATCC cat# CRL-1658): Cells were cultured at 37° C. in the presence of 5% CO2 and grown in Dulbecco's modified Eagle's medium (DMEM) with 4 mM L-glutamine adjusted to contain 1.5 g/L sodium bicarbonate and 4.5 g/L glucose and supplemented with fetal bovine serum at a final concentration of 10%, 100 μg/mL of streptomycin, and 100 U/mL penicillin.
(§1) Cells were plated in all wells of a tissue-culture treated, 96-well plate at a final count of 5000 cells/well in […], of the appropriate culture media. The cells were cultured for 24 hours after plating at 37° C. in the presence of 5% CO2.
(§2) After 24 hours, complexes containing siNA and RNAiMax were created as follows: A solution of RNAiMax diluted 33-fold in OPTI-MEM was prepared. In parallel, solutions of the siNAs for testing were prepared to a final concentration of 120 nM in OPTI-MEM. After incubation of RNAiMax/OPTI-MEM solution at room temperature for 5 min, an equal volume of the siNA solution and the RNAiMax solution were added together for each of the siNAs.
(§3) This solution was incubated at room temperature for 20 minutes. After incubation, 20 uL of the solution was added to each of the relevant wells. The final concentration of siNA in each well was 10 nM and the final volume of RNAiMax in each well was 0.3 ul.
(§4) The time of incubation with the RNAiMax-siNA complexes was 24 hours and there was no change in media between transfection and harvesting, unless otherwise indicated.
(§5) RNA was extracted from a 96-well plate using the TaqMan® Gene Expression Cells-to-CT™ Kit (Cat# 4399002) with a modified protocol. Briefly, a 60 uL (1 plate) or 110 uL (2 plates) of the Lysis Solution with DNase I was dispensed into each well of the Lysis Buffer Plate (twin.tec full skirt plate). The lysis buffer and stop plates were stored at 4° C. until the cells were washed.
(§6) The plate was spun at 1100 rpm for 5 minutes. The culture medium was aspirated and discarded from the wells of the culture plate. The lysis was performed automatically using a BioMek FX instrument and method. After the Biomek method was completed, the lysis plate was incubated for 2 min. at room temperature. The lysis plate can be stored for 2 hours at 4° C., or at −20° C. or −80° C. for two months.
(§7) Each well of the reverse transcription plate required 10 uL of 2× reverse transcriptase Buffer, 1 uL of 20× reverse transcription enzyme and 2 uL of nuclease-free water. The reverse transcription master mix was prepared by mixing 2× reverse transcription buffer, 20× reverse transcription enzyme mix, and nuclease-free water. 13 uL of the reverse transcription master mix was dispensed into each well of the reverse transcription plate (semi-skirted). A separate reverse transcription plate was prepared for each cell plate. The plate was loaded onto a Biomek NX or Biomek FX Dual -96 and the Biomek method was run. The program is programmed to automatically added 7 uL of lysate from the cell lysis procedure described above into each well of the reverse transcription plate. The plate is sealed and spun on a centrifuge (1000 rpm for 30 seconds) to settle the contents to the bottom of the reverse transcription plate. The plate is placed in a thermocycler at 37° C. for 60 min, 95° C. for 5 min, and 4° C. until the plate is removed from the thermocycler. Upon removal, if not used immediately, the plate was frozen at −20° C.
(§8) A series of probes and primers were used to detect the various mRNA transcripts of the genes of β-Actin (human cell line only), and of CTGF and GAPDH in mouse and human cell lines. All Taqman probes and primers for the experiments here-in described were supplied as pre-validated sets by Applied Biosystems, Inc. (see Table 3).
The assays were performed on an ABI 7900 instrument, according to the manufacturer's instructions. A TaqMan Gene Expression Master Mix (provided in the Cells-to-CT™, Applied Biosystems, Cat # 4399002) was used. […]

CTGF mRNA [2] = experiment: CTGF mRNA knockdown (Taqman RT-PCR) after siNA transfection of human NHLF cells; format: cell-based; settings: 10 nM siNA, 24 hrs, average of 3 experiments, vs non-targeting control
Protocol: NHLF (Normal human lung fibroblasts; Lonza cat# CC-2512): Cells were cultured at 37° C. in the presence of 5% CO2 and grown in Fibroblast Basal Medium (Lonza cat# CC-3132) supplemented with 2% FBS and growth factors (provided with the kit) and 100 μg/mL of streptomycin and 100 U/mL penicillin.
as §1, §2, §3, §4, §5, §6, §7, §8
The assays were performed on an ABI 7900 instrument, according to the manufacturer's instructions. A TaqMan Gene Expression Master Mix (provided in the Cells-to-CT™, Applied Biosystems, Cat # 4399002) was used. The PCR reactions were carried out at 50° C. for 2 min, 95° C. for 20 min followed by 40 cycles at 95° C. for 15 secs and 60° C. for 1 min. […]

Row | Substance | % KD Mouse (CTGF mRNA [1]) [%] | % KD Human (CTGF mRNA [2]) [%]
1 | 48062-DC: siNA duplex; sense SEQ ID NO: 89 B ccAcucuGccAGuGGAGuu TTB; antisense SEQ ID NO: 90 AACuccAcuGGcAGAGuGGUU (sense CCACUCUGCCAGUGGAGUUTT; antisense AACUCCACUGGCAGAGUGGUU; sense: DNA at AGT, 2'-fluoro at CU, [invAb] at 5' end, 3' end, backbone not given here; antisense: sugars from the 5' end rrrfffmffmmfmmmmfmmmm, backbone not given here) | 12 ± 2 | −1 ± 18
2 | 48063-DC: siNA duplex; sense SEQ ID NO: 91 B AcAcGAAcucAuuAGAcuA TTB; antisense SEQ ID NO: 92 UAGucuAAuGAGuucGuGuUU (sense ACACGAACUCAUUAGACUATT; antisense UAGUCUAAUGAGUUCGUGUUU; sense: DNA at AGT, 2'-fluoro at CU, [invAb] at 5' end, 3' end, backbone not given here; antisense: sugars from the 5' end rrrfffmmfmmmfffmfmfmm, backbone not given here) | 84 ± 2 | 59 ± 3
3 | 48064-DC: siNA duplex; sense SEQ ID NO: 93 B AGuGGAGAuGccAGGAGAA TTB; antisense SEQ ID NO: 94 UUCuccuGGcAucuccAcuUU (sense AGUGGAGAUGCCAGGAGAATT; antisense UUCUCCUGGCAUCUCCACUUU; sense: DNA at AGT, 2'-fluoro at CU, [invAb] at 5' end, 3' end, backbone not given here; antisense: sugars from the 5' end rrrffffmmfmfffffmffmm, backbone not given here) | 58 ± 3 | 6 ± 6
4 | 48065-DC: siNA duplex; sense SEQ ID NO: 95 B GccuGucAAGuuuGAGcuu TTB; antisense SEQ ID NO: 96 AAGcucAAAcuuGAcAGGcUU (sense GCCUGUCAAGUUUGAGCUUTT; antisense AAGCUCAAACUUGACAGGCUU; sense: DNA at AGT, 2'-fluoro at CU, [invAb] at 5' end, 3' end, backbone not given here; antisense: sugars from the 5' end rrrfffmmmfffmmfmmmfmm, backbone not given here) | 46 ± 7 | 19 ± 6
5 | 48066-DC: siNA duplex; sense SEQ ID NO: 97 B AcAGuuuAcAcuuGAcAGu TTB; antisense SEQ ID NO: 98 ACUGucAAGuGuAAAcuGuUU (sense ACAGUUUACACUUGACAGUTT; antisense ACUGUCAAGUGUAAACUGUUU; sense: DNA at AGT, 2'-fluoro at CU, [invAb] at 5' end, 3' end, backbone not given here; antisense: sugars from the 5' end rrrmffmmmfmfmmmffmfmm, backbone not given here) | 80 ± 1 | 17 ± 7
6 | 48067-DC: siNA duplex; sense SEQ ID NO: 99 B GGGucAAGcuGccuGGGAA TTB; antisense SEQ ID NO: 100 UUCccAGGcAGcuuGAcccUU (sense GGGUCAAGCUGCCUGGGAATT; antisense UUCCCAGGCAGCUUGACCCUU; sense: DNA at AGT, 2'-fluoro at CU, [invAb] at 5' end, 3' end, backbone not given here; antisense: sugars from the 5' end rrrffmmmfmmfffmmfffmm, backbone not given here) | 26 ± 5 | −3 ± 31
7 | 48068-DC: siNA duplex; sense SEQ ID NO: 101 B uGGuuucGAGAcAGuuuAc TTB; antisense SEQ ID NO: 102 GUAAAcuGucucGAAAccAUU (sense UGGUUUCGAGACAGUUUACTT; antisense GUAAACUGUCUCGAAACCAUU; sense: DNA at AGT, 2'-fluoro at CU, [invAb] at 5' end, 3' end, backbone not given here; antisense: sugars from the 5' end rrrmmffmffffmmmmffmmm, backbone not given here) | 65 ± 3 | 12 ± 22
8 | 48069-DC: siNA duplex; sense SEQ ID NO: 103 B AGuGcAuccGGAcAccuAA TTB; antisense SEQ ID NO: 104 UUAGGuGuccGGAuGcAcuUU (sense AGUGCAUCCGGACACCUAATT; antisense UUAGGUGUCCGGAUGCACUUU; sense: DNA at AGT, 2'-fluoro at CU, [invAb] at 5' end, 3' end, backbone not given here; antisense: sugars from the 5' end rrrmmfmfffmmmfmfmffmm, backbone not given here) | 55 ± 2 | 45 ± 7
9 | 48070-DC: siNA duplex; sense SEQ ID NO: 105 B AcuGGuuucGAGAcAGuuu TTB; antisense SEQ ID NO: 106 AAAcuGucucGAAAccAGuUU (sense ACUGGUUUCGAGACAGUUUTT; antisense AAACUGUCUCGAAACCAGUUU; sense: DNA at AGT, 2'-fluoro at CU, [invAb] at 5' end, 3' end, backbone not given here; antisense: sugars from the 5' end rrrffmffffmmmmffmmfmm, backbone not given here) | 56 ± 2 | 9 ± 21
10 | 48071-DC: siNA duplex; sense SEQ ID NO: 107 B ccAAcuAuGAuGcGAGccA TTB; antisense SEQ ID NO: 108 UGGcucGcAucAuAGuuGGUU (sense CCAACUAUGAUGCGAGCCATT; antisense UGGCUCGCAUCAUAGUUGGUU; sense: DNA at AGT, 2'-fluoro at CU, [invAb] at 5' end, 3' end, backbone not given here; antisense: sugars from the 5' end rrrfffmfmffmfmmffmmmm, backbone not given here) | 21 ± 5 | 30 ± 15
11 | 48072-DC: siNA duplex; sense SEQ ID NO: 109 B AGuGuGcAcuGccAAAGAu TTB; antisense SEQ ID NO: 110 AUCuuuGGcAGuGcAcAcuUU (sense AGUGUGCACUGCCAAAGAUTT; antisense AUCUUUGGCAGUGCACACUUU; sense: DNA at AGT, 2'-fluoro at CU, [invAb] at 5' end, 3' end, backbone not given here; antisense: sugars from the 5' end rrrfffmmfmmfmfmfmffmm, backbone not given here) | 14 ± 6 | −8 ± 12
